From patent publication US20070191373A1, “Heterocyclic compounds for use in the treatment of viral infections” (priority 2003, published 2007)
Read-outs that look alike come from different tables or passages of the source.

Legend:
CMV strain AD169 = CMV strain AD169 induced cytopathicity in HEL cells; assay type: cell-based, cytomegalovirus (CMV); conditions: Human betaherpesvirus 5, AD169, 168 h, vs untreated control
Method: (§1) Products where X═Y═N, Z=Q=O, U═V═CH and R^1, R^4 and R^8 are as given in Tables 1 and 2 below embodying the present invention were tested in vitro in tissue cultures for toxicity and for potent antiviral actions with respect to cytomegalovirus (CMV).
EC50/μm CMV-AD169 is the drug concentration in μM required to reduce by 50% CMV strain AD169 induced cytopathicity in human embryonic lung fibroblast (HEL) cells measured 7 days post infection compared to untreated control.
(§2) Further details of the methodology employed can be found in McGuigan et al. J. Med. Chem., 1999, 42, 4479-4484.

CMV strain Davis = CMV strain Davis induced cytopathicity in HEL cells; assay type: cell-based, cytomegalovirus (CMV); conditions: Human betaherpesvirus 5, 168 h, vs untreated control
Method: as §1
EC50/μM CMV Davis is the drug concentration in μM required to reduce by 50% CMV strain Davis induced cytopathicity in human embryonic lung fibroblast (HEL) cells measured 7 days post infection compared to untreated control.
as §2

[1] = Toxicity in tissue culture, reduction of cell number; assay type: cell-based; conditions: human, human embryonic lung fibroblast (HEL) cells, concentration reducing cell number by 50%
Method: as §1
CC50/μM is the compound concentration required to reduce the cell number by 50%.
as §2

[2] = not given; remark: listed apart in the source
[3] = Preliminary rodent trial, bioavailability and half life after i.p. dosing; assay type: in vivo
[4] = Table 1, 7 days post infection, read-out: EC50/μM 1 CMV Davis
[5] = Table 2, 7 days post infection, read-out: EC50/μM 2 CMV Davis

## CCCCc1cc2cn(C3CCCC3)c(=O)nc2o1 [Cf2158, 6-Butyl-3-cyclopentyl-3H-furo[2,3-d]pyrimidin-2-one]
CMV strain AD169; Table 1, 7 days post infection
  EC50: > 50 µM
CMV strain Davis; [4]
  EC50: > 50 µM

## CCCCc1cc2cnc(OC3CCCC3)nc2o1 [Cf2159, 6-Butyl-2-cyclopentyloxy-furo[2,3-d]pyrimidine]
[1]; Table 2
  CC50: 108 µM
CMV strain AD169; Table 2, 7 days post infection
  EC50: 8 µM
other
  melting point: 69 to 71 °C
CMV strain Davis; [5]
  EC50: 7 µM

## CCCCCCCc1cc2cn(C3CCCC3)c(=O)nc2o1 [Cf2160]
[1]; Table 1
  CC50: 194 µM
CMV strain AD169; Table 1, 7 days post infection
  EC50: 5 µM
CMV strain Davis; [4]
  EC50: 4 µM

## CCCCCCCc1cc2cnc(OC3CCCC3)nc2o1 [Cf2161, 6-Heptyl-2-cyclopentyloxy-furo[2,3-d]pyrimidine]
[1]; Table 2
  CC50: 132 µM
[2]; 50 mg/kg/day
  visible in vivo toxicity: no visible in vivo toxicity
[2]; in vivo
  histology: toxicity against brain, thymus, liver, lungs, kidney, breast, testi, ovum and spleen tissue: no detectable toxicity
CMV strain AD169; Table 2, 7 days post infection
  EC50: 3 µM
CMV strain Davis; [5]
  EC50: 5 µM
[3]
  bioavailability: significant

## CCCCCCCc1cc2cnc(OC(CC)CC)nc2o1 [Cf2189, 6-Heptyl-2-(1-ethyl-propoxy)-furo[2,3-d]pyrimidine]
[1]; Table 2
  CC50: 98 µM
CMV strain AD169; Table 2, 7 days post infection
  EC50: > 5 µM
other
  melting point: 70 to 71 °C
CMV strain Davis; [5]
  EC50: 12 µM

## CCCCCCCc1cc2cn(C(CC)CC)c(=O)nc2o1 [Cf2190, 6-Heptyl-3-(1-ethyl-propyl)-3H-furo[2,3-d]pyrimidin-2-one]
[1]; Table 1
  CC50: > 200 µM
CMV strain AD169; Table 1, 7 days post infection
  EC50: 20 µM
CMV strain Davis; [4]
  EC50: 50 µM

## CCCCCCCc1cc2cnc(OCCCCC)nc2o1 [Cf2191, 6-Heptyl-2-pentyloxy-furo[2,3-d]pyrimidine]
[1]; Table 2
  CC50: 1110 µM
CMV strain AD169; Table 2, 7 days post infection
  EC50: > 5 µM
other
  melting point: 48 to 49 °C
CMV strain Davis; [5]
  EC50: 16 µM

## CCCCCCCc1cc2cn(CCCCC)c(=O)nc2o1 [Cf2192, 6-Heptyl-3-pentyl-3H-furo[2,3-d]pyrimidin-2-one]
[1]; Table 1
  CC50: > 200 µM
CMV strain AD169; Table 1, 7 days post infection
  EC50: > 200 µM
CMV strain Davis; [4]
  EC50: > 200 µM

## CCCCc1cc2cnc(OC(CC)CC)nc2o1 [Cf2193, 6-Butyl-2-(1-ethyl-propoxy)-furo[2,3-d]pyrimidine]
[1]; Table 2
  CC50: 98 µM
CMV strain AD169; Table 2, 7 days post infection
  EC50: > 20 µM
CMV strain Davis; [5]
  EC50: > 20 µM

## CCCCc1cc2cn(C(CC)CC)c(=O)nc2o1 [Cf2194, 6-Butyl-3-(1-ethyl-propyl)-3H-furo[2,3-d]pyrimidin-2-one]
[1]; Table 1
  CC50: > 200 µM
CMV strain AD169; Table 1, 7 days post infection
  EC50: > 50 µM
CMV strain Davis; [4]
  EC50: > 200 µM

## CCCCCn1cc2cc(CCCC)oc2nc1=O [Cf2195, 6-Butyl-3-pentyl-3H-furo[2,3-d]pyrimidin-2-one]
[1]; Table 1
  CC50: > 200 µM
CMV strain AD169; Table 1, 7 days post infection
  EC50: > 50 µM
CMV strain Davis; [4]
  EC50: > 50 µM

## CCCCCCCc1cc2cn(C3CCCO3)c(=O)nc2o1 (centres unmarked) [Cf2196, 6-Heptyl-3-(tetrahydro-furan-2-yl)-3H-furo[2,3-d]pyrimidin-2-one]
[1]; Table 1
  CC50: 46 µM
CMV strain AD169; Table 1, 7 days post infection
  EC50: > 20 µM
CMV strain Davis; [4]
  EC50: > 20 µM

## CCCCCCCCCCc1cc2cnc(OCCCCC)nc2o1 [Cf2247]
[1]; Table 2
  CC50: > 200 µM
CMV strain AD169; Table 2, 7 days post infection
  EC50: > 200 µM
CMV strain Davis; [5]
  EC50: > 200 µM

## CCCCCCCCCCc1cc2cn(C3CCCO3)c(=O)nc2o1 (centres unmarked) [Cf2249, 6-Decyl-3-(tetrahydro-furan-2′-yl)-2,3-dihydrofuro[2,3-d]pyrimidin-2-one]
[1]; Table 1
  CC50: > 200 µM
CMV strain AD169; Table 1, 7 days post infection
  EC50: > 50 µM
CMV strain Davis; [4]
  EC50: 50 µM

## CCCCCCCCCCc1cc2cnc(OC3CCCC3)nc2o1 [Cf2250, 2-Cyclopentyloxy-6decyl-2,3-dihydrofuro[2,3-d]pyrimidine]
[1]; Table 2
  CC50: > 200 µM
CMV strain AD169; Table 2, 7 days post infection
  EC50: > 50 µM
CMV strain Davis; [5]
  EC50: > 50 µM

## CCCCCCCCCCc1cc2cnc(OC(CC)CC)nc2o1 [Cf2252]
[1]; Table 2
  CC50: 127 µM
CMV strain AD169; Table 2, 7 days post infection
  EC50: 16 µM
CMV strain Davis; [5]
  EC50: 10 µM

## CCCCCCCCCCc1cc2cnc(OCC3CCCCC3)nc2o1 [Cf2274, 2-Cyclohexylmethoxy-6-decyl-furo[2,3-d]pyrimidine]
[1]; Table 2
  CC50: > 200 µM
CMV strain AD169; Table 2, 7 days post infection
  EC50: 4.4 µM
CMV strain Davis; [5]
  EC50: 2.9 µM

## CCCCCCCCCCc1cc2cn(CC3CCCCC3)c(=O)nc2o1 [Cf2275, 3-Cyclohexylmethyl-6-decyl-3H-furo[2,3-d]pyrimidin-2-one]
[1]; Table 1
  CC50: > 200 µM
CMV strain AD169; Table 1, 7 days post infection
  EC50: > 200 µM
CMV strain Davis; [4]
  EC50: > 200 µM

## CCCCCCCCCCc1cc2cn(C3CCOC3)c(=O)nc2o1 (centres unmarked) [Cf2276, 6-Decyl-3-(tetrahydro-furan-3-yl)-3H-furo[2,3-d]pyrimidin-None]
[1]; Table 1
  CC50: 148 µM
CMV strain AD169; Table 1, 7 days post infection
  EC50: 20 µM
CMV strain Davis; [4]
  EC50: 10 µM

## CCCCCCCCCCc1cc2cnc(OC3CCCCC3)nc2o1 [Cf2294]
[1]; Table 2
  CC50: > 200 µM
CMV strain AD169; Table 2, 7 days post infection
  EC50: 12 µM
CMV strain Davis; [5]
  EC50: 16 µM

## CCCCCCCCCCc1cc2cn(C3CCCCC3)c(=O)nc2o1 [Cf2295, 3-Cyclohexyl-6-decyl-2,3-dihydrofuro[2,3-d]pyrimidin-2-one]
[1]; Table 1
  CC50: > 200 µM
CMV strain AD169; Table 1, 7 days post infection
  EC50: 38 µM
CMV strain Davis; [4]
  EC50: 50 µM

## CCCCCCCCCCc1cc2cnc(OCCC)nc2o1 [Cf2303, 6-Decyl-2-propoxy-furo[2,3-d]pyrimidine]
[1]; Table 2
  CC50: 126 µM
CMV strain AD169; Table 2, 7 days post infection
  EC50: 2.5 µM
CMV strain Davis; [5]
  EC50: 2.1 µM

## CCCCCCCCCCc1cc2cn(CCC)c(=O)nc2o1 [Cf2304, 6-Decyl-3-propyl-3H-furo[2,3-d]pyrimidin-2-one]
[1]; Table 1
  CC50: > 200 µM
CMV strain AD169; Table 1, 7 days post infection
  EC50: 40 µM
CMV strain Davis; [4]
  EC50: 8 µM

## CCCCCCCCCCc1cc2cnc(OCCCC)nc2o1 [Cf2305, 2-Butoxy-6decyl-furo[2,3-a]pyrimidine]
[1]; Table 2
  CC50: > 200 µM
CMV strain AD169; Table 2, 7 days post infection
  EC50: 3.9 µM
CMV strain Davis; [5]
  EC50: 2.7 µM

## CCCCCCCCCCc1cc2cn(CCCC)c(=O)nc2o1 [Cf2306, 3-Butyl-6-decyl-3H-furo[2,3-d]pyrimidin-2-one]
[1]; Table 1
  CC50: > 200 µM
CMV strain AD169; Table 1, 7 days post infection
  EC50: > 200 µM
CMV strain Davis; [4]
  EC50: > 200 µM

## CCCCCCCCCCc1cc2cnc(OCc3ccccc3)nc2o1 [Cf2307, 2-Benzyloxy-6-decyl-furo[2,3-d]pyrimidine]
[1]; Table 2
  CC50: > 200 µM
CMV strain AD169; Table 2, 7 days post infection
  EC50: 3.3 µM
CMV strain Davis; [5]
  EC50: 1.1 µM

## CCCCCCCCCCc1cc2cn(Cc3ccccc3)c(=O)nc2o1 [Cf2308, 3-Benzyl-6-decyl-3H-furo[2,3-d]pyrimidin-2-one]
[1]; Table 1
  CC50: > 200 µM
CMV strain AD169; Table 1, 7 days post infection
  EC50: > 40 µM
CMV strain Davis; [4]
  EC50: > 40 µM

## CCCCCCCCCCc1cc2cn(CC3CCCO3)c(=O)nc2o1 (centres unmarked) [Cf2309, 6-Decyl-3-(tetrahydro-furan-2-ylmethyl)-3H-furo[2,3-d]pyrimidin-2-one]
[1]; Table 1
  CC50: 49 µM
CMV strain AD169; Table 1, 7 days post infection
  EC50: 0.78 µM
CMV strain Davis; [4]
  EC50: 0.84 µM

## CCCCCCCCCCc1cc2cnc(OCc3ccc(C)cc3)nc2o1 [Cf2313, 6-Decyl-2-(4-methylbenzyloxy)-3H-furo[2,3-d]pyrimidine]
[1]; Table 2
  CC50: > 200 µM
CMV strain AD169; Table 2, 7 days post infection
  EC50: 10.5 µM
CMV strain Davis; [5]
  EC50: 3.9 µM

## CCCCCCCCCCc1cc2cn(Cc3ccc(C)cc3)c(=O)nc2o1 [Cf2314, 6-Decyl-3-(4-methylbenzyl)-3H-furo[2,3-d]pyrimidin-2-one]
[1]; Table 1
  CC50: > 200 µM
CMV strain AD169; Table 1, 7 days post infection
  EC50: > 40 µM
CMV strain Davis; [4]
  EC50: > 40 µM

## CCCCCCCCCCc1cc2cnc(OCc3ccc(OC)cc3)nc2o1 [Cf2315, 6-Decyl-2-(4-methoxybenzyloxy)-3H-furo[2,3-a]pyrimidine]
[1]; Table 2
  CC50: > 200 µM
CMV strain AD169; Table 2, 7 days post infection
  EC50: 3.3 µM
CMV strain Davis; [5]
  EC50: 2.9 µM

## CCCCCCCCCCc1cc2cn(Cc3ccc(OC)cc3)c(=O)nc2o1 [Cf2316, 6-Decyl-3-(4-methoxybenzyl)-3H-furo[2,3-d]pyrimidin-2-one]
[1]; Table 1
  CC50: > 200 µM
CMV strain AD169; Table 1, 7 days post infection
  EC50: > 200 µM
CMV strain Davis; [4]
  EC50: > 200 µM

## CCCCCCc1cc2cn(C)c(=O)nc2o1 [Cf2344, 6-Hexyl-3-methyl-3H-furo[2,3-d]pyrimidin-2-one]
CMV strain AD169; Table 1, 7 days post infection
  EC50: 18 µM
CMV strain Davis; [4]
  EC50: 20 µM

## CCCCCCc1cc2cnc(OCCCC)nc2o1 [Cf2346, 2-Butyloxy-6-hexyl-furo[2,3-d]pyrimidine]
CMV strain AD169; Table 2, 7 days post infection
  EC50: 8 µM
CMV strain Davis; [5]
  EC50: 3 µM

## CCCCCCc1cc2cnc(OCc3ccccc3)nc2o1 [Cf2348, 2-Benzyloxy-6-hexyl-furo[2,3-d]pyrimidine]
CMV strain AD169; Table 2, 7 days post infection
  EC50: > 200 µM
CMV strain Davis; [5]
  EC50: > 3.6 µM

## CCCCCCc1cc2cn(Cc3ccccc3)c(=O)nc2o1 [Cf2349, 3-Benzyl-6-hexyl-3H-furo[2,3-d]pyrimidin-2-one]
CMV strain AD169; Table 1, 7 days post infection
  EC50: > 200 µM
CMV strain Davis; [4]
  EC50: > 200 µM

## CCCCCOc1ncc2cc(CCCC)oc2n1 [Cf 2327]
other
  melting point: 51 to 52 °C
